Measured values as given in patent WO2020158863A1, “Combined drug of anthracycline compound-containing micelle preparation with immunostimulant” (priority 2019, dated 2020).
Where a name gives a salt, the structure may show the parent alone.

What was measured:
[1] = test system: KPC cells; experiment: ICD marker expression, flow cytometry, KPC cells (Experimental Example 13-2); assay type: cell-based, mouse; conditions: 24 h, Fig. 21; for HSP70 level / HSP90 level / calreticulin level: 1 μg/mL or 5 μg/mL
[2] = test system: mouse pancreatic cancer cells KPC; experiment: IC50 for mouse pancreatic cancer cells KPC (Experimental Example 13-1); assay type: cell-based; conditions: Pancreatic cancer cell
[3] = test system: various cancer cells (MCA205, AB12, GL261, CT2A, LL2, C26); experiment: IC50 against various cancer cells (Experimental Example 11-1); assay type: cell-based
[4] = test system: CT2A cells; experiment: Cytotoxic activity (IC50), CT2A cells (Experimental Example 6); assay type: cell-based, mouse; conditions: PTEN-negative; 48 h; Fig. 8F
[5] = test system: GL261-luc tumor; experiment: Orthotopic GL261-luc tumor in wild type mice (Experimental Example 7-1); assay type: in vivo, mouse; conditions: wild type C57/BL6; 5 mg/kg Epi equivalent
[6] = test system: mouse glioblastoma (GBM) cells GL261; experiment: in vitro cytotoxicity assay (Experimental Example 3); assay type: cell-based; conditions: 3 h exposure, 48 h incubation; Fig. 3
[7] = test system: GL261-luc tumor; experiment: Orthotopic GL261-luc tumor in nude mice (Experimental Example 7-1); assay type: in vivo, mouse; conditions: nude BALB/c; 5 mg/kg Epi equivalent
[8] = test system: fibrosarcoma cell carcinoma line (MCA205, Sarcoma180, NIH3T3, HT1080); experiment: IC50 against fibrosarcoma cell lines (Experimental Example 12-1); assay type: cell-based
[9] = test system: GL261 cells; experiment: Cytotoxic activity (IC50), GL261 cells (Experimental Example 6)
[10] = test system: PD-L1; experiment: PD-L1 expression in CT2A tumors, flow cytometry (Experimental Example 10); assay type: in vivo, mouse; conditions: 8 days after single tail vein injection, 6 mg/kg Epi equivalent; Fig. 16
[11] = test system: GL261 cells; experiment: ICD marker expression on cell surface, flow cytometry, GL261 cells; assay type: cell-based, mouse; conditions: 24 h; negative control; Fig. 8G

CCc1c2c(nc3ccc(OC(=O)N4CCC(N5CCCCC5)CC4)cc13)-c1cc3c(c(=O)n1C2)COC(=O)[C@]3(O)CC [irinotecan]
ICD marker level ([1]; any concentration): did not significantly increase the marker at any concentration

COc1cccc2c1C(=O)c1c(O)c3c(c(O)c1C2=O)C[C@@](O)(C(=O)CO)C[C@@H]3O[C@H]1C[C@H](N)[C@H](O)[C@H](C)O1 [DOX, doxorubicin hydrochloride]
IC50 [2]: ≤ 2 µg/mL | HSP70 level [1]: significantly increased | HSP90 level [1]: significantly increased | calreticulin level [1]: significantly increased

COc1cccc2c1C(=O)c1c(O)c3c(c(O)c1C2=O)C[C@@](O)(C(=O)CO)C[C@@H]3O[C@H]1C[C@H](N)[C@@H](O)[C@H](C)O1 [Epi, Epirubicin hydrochloride]
IC50 [3]: ≤ 1 µg/mL | cytotoxic activity [4]: high activity against PTEN-negative CT2A cells, comparable to the activity against GL261 cells | tumor growth rate / tumor-derived luminescence [5]: the tumor growth rate was not suppressed | in vitro cytotoxicity [6]: high in vitro cytotoxicity | tumor growth rate [7]: the tumor growth rate was not suppressed | IC50 [8]: ≤ 2 µg/mL | IC50 ([9]; Mus musculus, GL261, 48 h): < 1 µg/mL | cytotoxic activity ([9]; PTEN-positive, 48 h, Fig. 8E): high cytotoxic activity | expression level of PD-L1 in tumor cells [10]: no such reduction in expression levels occurred | HSP70 level [1]: significantly increased | HSP90 level [1]: significantly increased | calreticulin level [1]: significantly increased

[NH2][Pt]([NH2])([Cl])[Cl] [CDDP, Cisplatin]
ICD marker level [11]: did not significantly increase the marker
